In assay [1] the target is T1, (Dα1)3(β2)2 nAChR (Drosophila melanogaster, UniProt P09478+P09484).
T1 construct: gene nAChRalpha1; fruitfly Dα1 and chicken β2 cDNAs in pcDNA3.1(+), cRNA mixed 5:1 (Dα1:β2), Xenopus laevis oocytes; hybrid pentamer with Dα1/Dα1 and Dα1/β2 interfaces
The assay is described as follows: two-electrode voltage clamp, Xenopus oocytes, agonist concentration-response. It counts as cell-based. From the text: two-electrode voltage clamp, Xenopus oocytes, agonist concentration-response on (Dα1)3(β2)2 nAChR

Assay [2] addresses T2, (Dα1)2(β2)3 nAChR (Drosophila melanogaster, UniProt P09478+P09484).
T2 construct: gene nAChRalpha1; fruitfly Dα1 and chicken β2 cDNAs in pcDNA3.1(+), cRNA mixed 1:5 (Dα1:β2), Xenopus laevis oocytes; hybrid pentamer with Dα1/β2 interfaces
Described as above. Format: cell-based. From the text: two-electrode voltage clamp, Xenopus oocytes, agonist concentration-response on (Dα1)2(β2)3 nAChR

Where two headings read alike, the source gives them in different places.

T1 sequence (P09478 22-567): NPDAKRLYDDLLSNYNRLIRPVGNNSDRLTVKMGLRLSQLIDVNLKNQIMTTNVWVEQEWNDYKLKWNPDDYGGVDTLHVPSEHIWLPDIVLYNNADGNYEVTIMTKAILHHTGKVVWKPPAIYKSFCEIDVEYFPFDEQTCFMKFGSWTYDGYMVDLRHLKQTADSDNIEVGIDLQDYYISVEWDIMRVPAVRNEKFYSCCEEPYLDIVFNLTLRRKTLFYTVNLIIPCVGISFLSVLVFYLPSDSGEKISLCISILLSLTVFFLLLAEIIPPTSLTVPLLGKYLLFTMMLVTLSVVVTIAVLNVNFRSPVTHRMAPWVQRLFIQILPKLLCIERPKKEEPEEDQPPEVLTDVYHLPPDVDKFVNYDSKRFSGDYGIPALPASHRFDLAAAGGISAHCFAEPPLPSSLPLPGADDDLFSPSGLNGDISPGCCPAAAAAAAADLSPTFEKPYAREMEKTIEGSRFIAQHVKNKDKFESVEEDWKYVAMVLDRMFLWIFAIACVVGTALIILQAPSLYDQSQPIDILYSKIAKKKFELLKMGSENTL
T1 sequence (P09484 19-491): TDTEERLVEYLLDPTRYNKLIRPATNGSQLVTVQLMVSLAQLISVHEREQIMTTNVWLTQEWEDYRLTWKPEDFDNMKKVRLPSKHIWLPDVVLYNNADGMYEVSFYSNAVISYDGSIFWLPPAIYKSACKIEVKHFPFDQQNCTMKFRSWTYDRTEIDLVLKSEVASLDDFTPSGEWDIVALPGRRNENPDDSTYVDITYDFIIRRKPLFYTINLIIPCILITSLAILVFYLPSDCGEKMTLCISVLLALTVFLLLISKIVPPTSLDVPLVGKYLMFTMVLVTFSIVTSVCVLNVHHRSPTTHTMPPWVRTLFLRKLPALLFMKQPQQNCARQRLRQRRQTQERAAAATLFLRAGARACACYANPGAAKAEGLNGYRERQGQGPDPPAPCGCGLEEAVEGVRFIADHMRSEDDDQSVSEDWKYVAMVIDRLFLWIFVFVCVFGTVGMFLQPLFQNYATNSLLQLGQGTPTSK
T2 sequence (P09478 22-567): as the sequence (P09478 22-567) above
T2 sequence (P09484 19-491): as the sequence (P09484 19-491) above

On to `CC(=O)OCC[N+](C)(C)C` [ACh], for which the EC50 is 155 nM in assay [1] (read-out: (Dα1)3(β2)2 / pEC50 (converted)) and 162 nM in assay [2] (read-out: (Dα1)2(β2)3 / pEC50 (converted)).

On to `O=[N+]([O-])NC1=NCCN1Cc1ccc(Cl)nc1` [imidacloprid], for which the results for the EC50 in assay [1] (read-out: Imidacloprid / (Dα1)3(β2)2 / pEC50 (converted)) and in assay [2] (read-out: Imidacloprid / (Dα1)2(β2)3 / pEC50 (converted)) were 162 nM and 112 nM, respectively.

In the case of `N#C/N=C1\SCCN1Cc1ccc(Cl)nc1` [thiacloprid], the EC50 in assay [1] (read-out: Thiacloprid / (Dα1)3(β2)2 / pEC50 (converted)) is 45.7 nM; in assay [2] (read-out: Thiacloprid / (Dα1)2(β2)3 / pEC50 (converted)) it was 24.5 nM.

These data come from paper PMC7200709, “The mechanism of loop C-neonicotinoid interactions at insect nicotinic acetylcholine receptor α1 subunit predicts resistance emergence in pests” (Scientific Reports, 2020).
